{
  "source": "patent US20250136997A1",
  "about": "“COMPOSITIONS FOR SEQUESTERING ISOAMYL AMINE AND METHODS OF USE THEREFOR” (University of Louisville Research Foundation, Inc., priority 2023, published 2025)",
  "key": {"microglial cells [1]": {"test_system": "microglial cells", "assay": "Western blot of cleaved caspase-3 and cleaved PARP in ex vivo cultured microglial cells", "format": "cell-based, mouse", "procedure": "Isolation of microglia, neuron, astrocytes, and oligodendrocytes from the brain. Mice were anaesthetized with a mixture of ketamine (16%) and xylazine (3%) by intraperitoneal injection and then sacrificed under basal conditions by transcardial perfusion with perfusion buffer (Ca^2+/Mg^2+ free HBSS containing 0.5 mM EGTA, 10 mM HEPES and 4.2 mM NaHCO3; pH 7.2). The perfused brain was removed and gently mechanically disaggregated with tweezers in dissociation buffer (HBSS containing 10 mM HEPES and 4.2 mM NaHCO3 supplemented with Type I collagenase (0.05%), Dispase II (25 mg/ml), DNase I (2.5 mg/ml), trypsin inhibitor ([…]); pH 7.5) followed by incubation at 37° C. for 1 hour. The tissue homogenate was centrifuged at 1,350×g for 5 minutes at 4° C. For the isolation of microglia, the digestion enzymes in the tissue homogenate were inactivated by addition of PBS/EDTA containing 5% fetal bovine serum (FBS) and the digested brain bits were triturated gently, passed over a 100 µm filter (Fisher Scientific) and centrifuged. […] The pellet of cells was rinsed in PBS. Any contaminating red blood cells (RBC) were lysed using RBC lysis buffer (Sigma) according to the manufacturer's instructions, rinsed twice with PBS and passed through a 40 µm filter (Fisher Scientific). Cells were then stained for CD11b and CD45 for flow cytometry analysis. The astrocytes were isolated from mouse cortices (n=10). The tissue homogenate was centrifuged at 800×g for 10 minutes at 4° C. following digestion with type II collagenase (1 mg/ml) and type I DNase (10 U/ml) in DMEM for 10 minutes. The cells pelleted by centrifugation were plated in a 100 mm culture dish coated with poly-L-ornithine (Sigma). For the isolation of oligodendrocytes, the glial cells above were cultured in specific media containing T3 and T4 (0.5 mM) as well as platelet-derived growth factor (PDGF, 10 ng/ml) to promote the growth of the different cell types. Isolated glial cells were labelled with the following antibodies against surface markers: CD11b (Biolegend, Cat #101206), CD45 (Biolegend, Cat #147710), GFAP (Biolegend, Cat #837508) and MOG (Biorbyt, Cat #orb412341-FITC). Cells positive for CD11b and CD45Med were identified as microglia. Cells positive for GFAP and negative for CD45 and CD11b were identified as astrocytes. Cells sorted with MOG+CD11b− were identified as oligodendrocytes. Neurons were isolated from mouse brain using the Pierce Primary Neuron Isolation Kit (Thermo Scientific, Cat #88280). Briefly, the tissue homogenate from freshly dissected cortexes was suspended in an equal volume of ice cold HBSS (Sigma) and replaced with Neuronal Isolation Enzyme (with papain) in a 37° C. incubator for 30 minutes. After washing with HBSS, the tissue was cultured in a poly-D-lysine coated plate with Neuronal Culture Medium.\nWestern blotting. Cells were treated as indicated in individual Figure legends and whole cell extracts (WCE) were prepared in the radioimmunoprecipitation assay (RIPA) buffer (Sigma) with addition of protease and phosphatase inhibitors (Roche). Proteins were separated by 10% SDS-PAGE and transferred to polyvinylidene difluoride (PVDF) membranes (Bio-Rad Laboratories, Inc., Hercules, CA). Dual color precision protein MW markers (BioRad) were separated in parallel. Antibodies were purchased as follows: cleaved-caspase-3 (ab214430), cleaved PARP (ab203467) and GAPDH (ab9657, Abcam) from Abcam; S100A8 (47310) and S100a9 (72590) from Cell Signaling; and Ltf (GTX81085) from GeneTex. The secondary antibodies conjugated to Fluors Alex-488 (A32723) or Alex-594 (A11012) were purchased from Invitrogen (Eugene, OR). The bands were visualized on the Odyssey Imager (LiCor Inc, Lincoln, NE)."}, "microglial cells [2]": {"test_system": "microglial cells", "assay": "FACS analysis of apoptotic bodies (ABs) in supernatants of cultured microglial cells", "format": "cell-based, mouse", "conditions": "microglial cells isolated from young mice", "procedure": "Flow cytometry. Isolated cells were incubated with blocking solution (0.5% BSA/PBS) for 15 minutes at 4° C. For surface staining, cells were stained with various antibodies at room temperature for 1 hour and then washed with PBS. Washed cells were stained for 40 minutes at 4° C. with the appropriate fluorochrome-conjugated antibodies in PBS with 2% FBS. Data were acquired using a BD FACSCalibur flow cytometer (BD Biosciences, San Jose, CA) and analyzed using FlowJo software (Tree Star Inc., Ashland, OR). The following antibodies purchased from Biolegend were used for flow cytometry: anti-CD11b (101208), anti-CD45 (103112) and FITC Annexin V (640945). For the ABs analysis, extracellular vesicles were collected. To recognize the ABs, as described previously, size gates set based on forward scatter (FSC) were applied in combination with Annexin V staining. From these vesicles total ABs were detected using Annexin V staining events.\nIsolation of apoptotic bodies. Apoptotic bodies (ABs) were isolated from culture supernatants as previously described. Briefly, cell culture medium was harvested and cells were removed by pelleting at 335×g for 10 minutes. To remove cell-debris, supernatants were centrifuged at 1,000×g for 10 minutes, followed by another centrifugation at 2,000×g for 30 minutes to pellet ABs. Pelleted ABs were resuspended and washed with PBS."}, "[3]": {"assay": "Interaction of S100p1-G and metabolite: streptavidin pull-down from BV2 cells and LC-MS", "format": "cell-based, mouse", "conditions": "cell lysates", "procedure": "Interaction of S100p1-G and metabolite. Microglial BV2 cells (2×10^6) were transfected with biotinylated oligo S100p1-G or mutant using Lipofectamin RNAiMAX Reagent (Thermo Fisher) according to the manufacturer's instructions overnight at 37° C. […] of aged mouse fecal supernatant (from one-gram feces) was added into the cell growth medium. After six hours, the cells were collected in RIPA lysis buffer. […] of cell lysate was incubated with […] of DYNABEADS® Streptavidin beads (Thermo Fisher) at room temperature for 1 h. The bio-oligo complex was eluted with biotin (4 mg/ml)) in 25 mM Tris-HCL containing 0.3 M NaCl (PH 8.5) at 95° C. for 5 minutes. Metabolite analysis was performed with LC-MS."}, "[4]": {"assay": "HPLC analysis of IAA and CA in serum and cerebrospinal fluid (CSF) of mice", "format": "in vivo, mouse", "conditions": "aged mice, intravenous oligo, twice a week for 2 months"}, "[5]": {"assay": "Morris water maze (MWM) test", "format": "in vivo, mouse", "conditions": "aged mice, intravenous, twice a week for 2 months", "procedure": "Morris water maze (MWM) test. Mice were trained in a 122 cm diameter, 50 cm height open-field water maze with non-reflective interior surfaces. The pool water was filled with water maintained at 25±1° C. and mixed with non-toxic white tempera paint. Distinctive and extra-maze cues were marked on the wall at specific locations and were visible to the mice in the maze. Mice were removed from cages, placed into the water from quasi-random start points and allowed a maximum of 60 seconds to probe the escape platform. The inter interval of each trail remained for 15 seconds. For four consecutive days, four trials (training) were recorded each day with a final test on day 5 (FIG. 4A). Performance was evaluated by the mean escape latencies base on every training trial (Vorhees and Williams, 2006)."}, "[6]": {"assay": "Single-strand gel shift (SSGS) assay", "format": "binding", "conditions": "oligos (2 μM) incubated with IAA (10 μM), 15% PAGE", "procedure": "Single-strand gel shift (SSGS) assay. To identify the metabolite binding site of S100A8, we synthesized a series of oligonucleotides (oligos) (Eurofins Genomics LLC, KY) specific to the response putative IAA binding site at the promoter region of S100A8. The oligos ([…]) were incubated with […] of IAA at 37° C. for 30 minutes following electrophoresis on a 15% native PAGE without SDS in 0.5×TBE buffer. The oligos were stained with ethidium bromide ([…]) and visualized under ultraviolet (UV) light.\nGiven induction of bacterial metabolite IAA causes the degeneration of microglia by elevation of S100A8 at both the transcription and protein level, we hypothesized that IAA might directly target the promoter of S100A8 and regulate the expression of S100A8. Studying the interaction of metabolites, particularly small molecules, with nucleic acid is challenging due to a lack of appropriate tags for the metabolites. Because of this challenge, we developed a strategy raising the possibility to investigate the interaction of small molecules and nucleic acid.\nTo test our hypothesis, we first synthesized short single-DNA strains (around 60 mer length each) whose sequences spanned the promoter of S100A8 (FIG. 13A and Table 5). The site and sequence of the promoter and transcription start site (TSS) were determined according to the entire mRNA (Accession #NC_000069.7 (90,576,378 . . . 90,577,341)) and genomic sequence (Accession #L76381) from the NCBI nucleic acid database (FIG. 13A). These DNA oligos (2 μM) were incubated with IAA (10 μM) following native PAGE analysis (FIG. 4A). […] To define the accurate binding site of IAA, we synthesized 10 mer length DNA oligos covering the sequence of S100p1 (Table 5). Unfortunately, the 10 mer length oligo lost the conformational mobility shift in PAGE (FIG. 13C). We then tested the mobility shift with 20 mer oligos. […]"}, "[7]": {"assay": "Surface plasmon resonance (SPR) of biotin-labeled oligos with IAA", "format": "binding", "conditions": "biotin labeled oligo on streptavidin sensor chip", "procedure": "Surface plasmon resonance (SPR). To identify the binding activity of the metabolite IAA and S100A8 promoter sequence, SPR experiments were conducted on an OPENSPR™ (Nicoya, Lifesciences, CA). Experiments were performed on a streptavidin sensor (Nicoya, Lifesciences). SPR was run at a flow rate of 20 μl/min using HBS running buffer (20 mM HEPES, 150 mM NaCl, pH 7.4). First, the streptavidin sensor chip was cleaned with octyl β-D-glucopyranoside (40 mM) and CHAPS (20 mM). 200 μl of biotin-conjugated oligos (1 μg/ml, Table 5) were injected on the sensor chip for 10 minutes until a stable resonance was obtained. After immobilization of bio-oligo, the surface was blocked with BSA (3%) in running buffer. After a stable signal was obtained, IAA (10 nM) was run over the immobilized bio-oligo until a stable resonance was obtained. A negative control test was also performed by injecting IAA onto a blank sensor chip to check for non-specific binding. The sensograms were analyzed using TraceDrawer kinetic analysis software."}, "[8]": {"conditions": "added to ex vivo cultured microglial cells from young mice"}},
  "data": [
    {"molecule": "C/C=C/C(=O)O", "note": "[CA, crotonic acid]", "values": [
      {"measurement": "effect on the microglia (cleaved caspase-3)", "setting": "microglial cells [1]; S100A8 deficient microglia cells", "value": "abolished"},
      {"measurement": "cleaved caspase-3", "setting": "microglial cells [1]; [8]", "value": "increasing"},
      {"measurement": "cleaved poly(-ADP-ribose) polymerase (PARP)", "setting": "microglial cells [1]; [8]", "value": "increasing"},
      {"measurement": "ABs released into the culture supernatants", "setting": "microglial cells [2]", "value": "increase"}
    ]},
    {"molecule": "NCCCC(=O)O", "note": "[GABA]", "values": [
      {"measurement": "metabolite within the Bio-S100p1-G complex (LC-MS)", "setting": "[3]", "value": "did not find"}
    ]},
    {"molecule": "NCCCC[C@H](N)C(=O)O", "note": "[lysine]", "values": [
      {"measurement": "metabolite within the Bio-S100p1-G complex (LC-MS)", "setting": "[3]", "value": "did not find"}
    ]},
    {"molecule": "S100p1-G-Mut: CTGTATGCAA TTGGCCAAGC (SEQ ID NO: 9), mutant control oligo (DNA CTGTATGCAATTGGCCAAGC; DNA, backbone and methylation of C not given here; further chemistry not fully specified)", "values": [
      {"measurement": "IAA in CSF (HPLC)", "setting": "[4]", "value": "not seen"},
      {"measurement": "memory and spatial learning (MWM)", "setting": "[5]", "value": "not seen"}
    ]},
    {"molecule": "S100p1: CTGTGGGCAG CTGGCAAGC TTTCCTCTATAAAAGCAGCTGACACTTAGCCTCACAT (SEQ ID NO: 7), −57 . . . −1 (DNA CTGTGGGCAGCTGGCCAAGCTTTCCTCTATAAAAGCAGCTGACACTTAGCCTCACAT; DNA, backbone and methylation of C not given here; further chemistry not fully specified)", "values": [
      {"measurement": "mobility shift on native PAGE after incubation with IAA", "setting": "[6]", "value": "mobility shifted"},
      {"measurement": "interaction with IAA (SPR)", "setting": "[7]", "value": "targeted by IAA"}
    ]},
    {"molecule": "hS100A8p: AGCTGTGGGCAGCTGGCCAAGCCTAA (SEQ ID NO: 39), human S100A8 promoter oligo (DNA, backbone and methylation of C not given here; further chemistry not fully specified)", "values": [
      {"measurement": "mobility shift on native PAGE after incubation with IAA", "setting": "[6]", "value": "binds"}
    ]}
  ]
}
